Read-outs that look alike come from different tables or passages of the source.
Experiments:
SARS-CoV-2 NSP3 Mac1 [1] = target: T1, SARS-CoV-2 NSP3 Mac1 (Severe acute respiratory syndrome coronavirus 2, UniProt P0DTD1); assay: biochemical; assay type: binding
SARS-CoV-2 NSP3 Mac1 [2] = assay: Overall hit call (binding in crystallographic soaking or the HTRF-based binding assay)
From the text: Supplement pnas.2212931120.sd01.xlsx, sheet "Compound Summary" | column: HIT*

TARG1 = target: T2, TARG1 (Homo sapiens, UniProt Q9Y530); assay: adapted HTRF-based peptide displacement assay (off-target); assay type: binding
T2 construct: Targ1_HTRF; HTRF assay; pET22b(+); His6, TEV; 1-153; made in house
T2 sequence (Q9Y530 with tags, fused parts or gaps): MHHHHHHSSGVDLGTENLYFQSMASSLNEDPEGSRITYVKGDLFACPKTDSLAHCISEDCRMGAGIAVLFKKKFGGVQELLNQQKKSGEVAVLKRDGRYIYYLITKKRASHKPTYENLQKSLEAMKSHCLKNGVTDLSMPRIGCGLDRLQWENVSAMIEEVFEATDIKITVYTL

SARS-CoV-2 NSP3 Mac1 [3] = target: T1, SARS-CoV-2 NSP3 Mac1; assay type: binding; details: for 1-BDC (PanDDA): 1 minus background density correction; for 1-BDC (PanDDA) / Refined occupancy: crystal soaking of Mac1; for 1-BDC / PanDDA hit? / Modeled?: crystal soak, Compound_concentration 100 mM; for Refined occupancy: ligand occupancy after refinement (phenix.refine)
[4] = system: P-glycoprotein (human MDR1); assay: in vitro; details: dog; for Papp: MDCK-MDR1, pH 7.4, permeability, MDR1-MDCKII
Experimental: Permeability of compounds was assessed using canine MDR1 knockout and human MDR1 knockin MDCKII cells (MDR1-MDCKII) (Sigma-Aldrich, MTOX1303) in confluent monolayers expressing P-glycoprotein (P-gp) at Enamine biological services Bienta LTD (Kyiv, Ukraine).
Canine MDR1 knockout, human MDR1 knockin MDCKII cell (MDR1-MDCKII) (Sigma-Aldrich,
MTOX1303) suspension (400 μl) was added to each well of high throughput screening multiwell
insert system plates. Test compounds were prepared as 20 mM DMSO stocks. The test compound
(300 µl) was dissolved in transport buffer (9.5 g/l Hanks’ balanced salt solution and 0.35 g/l NaHCO3
wells whereas 1000 µl of transport buffer was added to transport analysis plate wells in order to
determine apical (A) to basolateral (B) transport. Basolateral to apical transport was measured by
adding 1000 µl of the test compound solution into the transport analysis plate wells whereas 300
µl of buffer was used to fill the filter plate wells.
were taken from the donor and receiver compartments for LC-MS/MS analysis. Samples were
mixed with acetonitrile followed by protein sedimentation by centrifugation at 1000 rpm for 10 min.
HPLC coupled with tandem mass spectroscopy was performed using the Shimadzu Prominence
HPLC system coupled with the API 5000 (PE Sciex) spectrometer. Both the positive and negative
ion modes of the TurboIonSpray ion source were used. The apparent permeability (Papp) was
computed using the equation 1, where VA is the volume of transport buffer in acceptor wel, Area is
the surface area of the insert, Time is the assay time, [drug]acc is the peak area of test compound
in acceptor well, and [drug]initial,d is the initial amount of the test compound in a donor well.

SARS-CoV-2 NSP3 Mac1 [5] = target: T1, SARS-CoV-2 NSP3 Mac1; set-up: contains a conserved macrodomain enzyme (Mac1); Differential scanning fluorimetry of Mac1, maximum thermal upshift; details: maximum shift over tested concentrations; binder
MacroD2 = target: T3, MacroD2 (Homo sapiens, UniProt A1Z1Q3); assay: adapted HTRF-based peptide displacement assay (off-target); assay type: binding
T3 construct: MacroD2_HTRF; HTRF assay; pET22b(+); His6, TEV, Avi; made in house
T3 sequence (A1Z1Q3 with tags, fused parts or gaps): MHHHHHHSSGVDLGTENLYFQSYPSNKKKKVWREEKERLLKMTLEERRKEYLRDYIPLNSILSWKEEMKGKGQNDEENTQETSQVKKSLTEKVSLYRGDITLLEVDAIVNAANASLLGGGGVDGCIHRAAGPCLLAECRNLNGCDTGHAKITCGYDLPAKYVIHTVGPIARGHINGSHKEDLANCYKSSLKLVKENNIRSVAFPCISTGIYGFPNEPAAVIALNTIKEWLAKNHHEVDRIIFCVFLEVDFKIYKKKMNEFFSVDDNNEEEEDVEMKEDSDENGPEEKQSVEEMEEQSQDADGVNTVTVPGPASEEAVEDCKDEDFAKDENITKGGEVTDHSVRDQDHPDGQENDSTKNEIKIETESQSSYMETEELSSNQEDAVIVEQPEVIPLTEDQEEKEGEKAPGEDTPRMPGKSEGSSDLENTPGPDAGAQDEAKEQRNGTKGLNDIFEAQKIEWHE

O=C(O)[C@H]1CCCC[C@H]1Nc1ncnc2[nH]c3cc(F)ccc3c12 [LRH-0021]
binding to Mac1 in the HTRF assay, result in words (SARS-CoV-2 NSP3 Mac1 [1]): equipotent to LRH-0003
IC50 (SARS-CoV-2 NSP3 Mac1 [1]; IC50 [µM], HTRF ADPr-conjugated peptide displacement): 1.7 µM
Ki (SARS-CoV-2 NSP3 Mac1 [1]; Ki*** [µM]): 1.5 µM
HIT* (SARS-CoV-2 NSP3 Mac1 [2]): Y
binding / activity against TARG1 (TARG1; compound at 160 µM): showed binding
1-BDC (PanDDA) (SARS-CoV-2 NSP3 Mac1 [3]; PanDDA event map): 0.12
1-BDC (SARS-CoV-2 NSP3 Mac1 [3]; PanDDA event map, Echo_dispense_volume 40 nl): 0.05
1-BDC (SARS-CoV-2 NSP3 Mac1 [3]; PanDDA event map, Echo_dispense_volume 80 nl): 0.12
PanDDA hit? (SARS-CoV-2 NSP3 Mac1 [3]; Echo_dispense_volume 40 nl, PanDDA run (background map) dmso_34, nohits_35 or nohits_62): TRUE
PanDDA hit? (SARS-CoV-2 NSP3 Mac1 [3]; Echo_dispense_volume 80 nl, PanDDA run dmso_34): TRUE
Modeled? (SARS-CoV-2 NSP3 Mac1 [3]; ligand modeled, Echo_dispense_volume 80 nl): TRUE
Refined occupancy (SARS-CoV-2 NSP3 Mac1 [3]): 24
Papp ([4]; apical to basal): 12 ×10⁻⁶ cm/s
Papp ([4]; basal to apical): 9.1 ×10⁻⁶ cm/s

c1csc(CC2CCN(c3ncnc4[nH]ccc34)C2)n1 (stereo not shown) [Z6891, ZINC000897286891]
DSF max dTma (SARS-CoV-2 NSP3 Mac1 [5]): 0.15 °C

OCc1cn(C2CCCN(c3ncnc4[nH]ccc34)C2)nn1 (stereo not shown) [Z7864, ZINC000292637864]
DSF max dTma (SARS-CoV-2 NSP3 Mac1 [5]): 0.32 °C

O=C(Nc1ccc(C(=O)NC2c3cccc(O)c3CC2C(=O)O)cc1)NC1CC1 (stereo not shown) [Z8539]
Papp A→B at 90 min, 10 µM ([4]; MDCK-MDR1, pH 7.4): 1.1 ± 0.1 ×10⁻⁶ cm/s
Papp B→A at 90 min, 10 µM ([4]; MDCK-MDR1, pH 7.4): 0.5 ×10⁻⁶ cm/s
Papp at 90 min, 10 µM ([4]; MDCK-MDR1, pH 7.4, cell permeability, MDCK cells, direction not given): 1.1 ×10⁻⁶ cm/s

Cc1nnc2n1CC(C(=O)O)N(C(=O)c1ccc(NC(=O)NC3CC3)cc1)C2 (stereo not shown) [Z8539_0037, 8539_0037]
DSF max dTma (SARS-CoV-2 NSP3 Mac1 [5]): 2.36 °C

NC(=O)Nc1ccc(C(=O)NC2c3cccc(O)c3CC2C(=O)O)cc1 (stereo not shown) [Z8539_0041, 8539_0041]
DSF max dTma (SARS-CoV-2 NSP3 Mac1 [5]): 6 °C

O=C(Nc1ccc(C(=O)NC2c3cccc(O)c3CC2C(=O)O)c(O)c1)NC1CC1 (stereo not shown) [Z8539_0072]
IC50 (SARS-CoV-2 NSP3 Mac1 [1]; HTRF, Mac1, read-out: affinity): 0.43 µM
IC50 (SARS-CoV-2 NSP3 Mac1 [1]; IC50, HTRF ADPr-peptide displacement from SARS-CoV-2 Mac1): 0.4 µM
Ki (SARS-CoV-2 NSP3 Mac1 [1]; Ki estimation from HTRF-derived IC50, Cheng-Prusoff, peptide 400nM, Kd 2.68µM, read-out: Ki***): 0.3 µM
improvement compared to the best starting fragment (SARS-CoV-2 NSP3 Mac1 [1]; affinity, HTRF): > 400 fold
displacement of the ADPr-conjugated peptide (off-target activity) (TARG1; compound at 50 µM): did not show any off-target activity
displacement of the ADPr-conjugated peptide (off-target activity) (TARG1; compound at 1 mM): did not show any off-target activity
1-BDC (SARS-CoV-2 NSP3 Mac1 [3]; PanDDA event map 1-BDC, PanDDA run dmso_34 or nohits_35 per dataset): 0.24
1-BDC (PanDDA) (SARS-CoV-2 NSP3 Mac1 [3]; PanDDA event map): 0.24
PanDDA hit? (SARS-CoV-2 NSP3 Mac1 [3]; Echo dispense 40 nl, PanDDA run dmso_34 or nohits_35 per dataset): TRUE
Modeled? (SARS-CoV-2 NSP3 Mac1 [3]; ligand modeled in this dataset): TRUE
Refined occupancy (SARS-CoV-2 NSP3 Mac1 [3]): 48
HIT* (SARS-CoV-2 NSP3 Mac1 [3]; true hit = binding in crystallographic soaking or the HTRF-based binding assay): Y
displacement of the ADPr-conjugated peptide (off-target activity) (MacroD2; compound at 50 µM): did not show any off-target activity
displacement of the ADPr-conjugated peptide (off-target activity) (MacroD2; compound at 1 mM): did not show any off-target activity

O=C(Nc1ccc(C(=O)N[C@H]2c3cccc(O)c3C[C@H]2C(=O)O)cc1)NC1CC1 [Z8601]
displacement of the ADPr-conjugated peptide (off-target activity) (TARG1; compound at 50 µM): no displacement
displacement of the ADPr-conjugated peptide (off-target activity) (TARG1; compound at 1 mM): approximately 50%
displacement of the ADPr-conjugated peptide (off-target activity) (MacroD2; compound at 50 µM): no displacement
displacement of the ADPr-conjugated peptide (off-target activity) (MacroD2; compound at 1 mM): approximately 50%

O=C1NCCCC1Nc1ncnc(-c2ccccc2)n1 (stereo not shown) [Z9020, ZINC000884519020]
DSF max dTma (SARS-CoV-2 NSP3 Mac1 [5]): 1.01 °C
